Measured values: patent US7037939B2, “Compound and derivative of gabapentin” (Industrial Technology Research Institue, priority 2002, dated 2006)

How the values were obtained:
[1] = Oral drug absorption test in rats: gabapentin concentration in blood/serum by LC/MS/MS; type: in vivo, rat; settings: 300 mg/kg, ratio of AUC to Gabapentin HCl
Method: Rats (3 male, Winstar rats) are fed with 300 mg/kg dosage of compounds. Plural blood samples are collected at different times (0, 0.5, 1, 2, 3, 8, 12, 24 hrs). The blood samples are centrifuged, and the concentration of gabapentin in the serum are analyzed with LC/MS/MS (MRM method, limitation of instruments 0.005 μg/mL).
After reducing the dosage, compounds of gabapentin prodrugs were selected for further pharmacodynamic analysis. The rats are fed with 50 mg/kg dosage of gabapentin equivalency individually.

[2] = test system: Caco-2 cell; test: Caco-2 monolayer cell transmission rate (in vitro intestinal absorption model); type: in vitro ADME, human
Text: The common use of the activity selection model for the in vitro intestinal absorption comprises: (1) Carcinoms (Caco-2); (2) Using Chamber; (3) Everted Gut Sac. Basically, there is no difference for those three drug-activity-selection models when they are used for evaluating the activity selection. However, in terms of the cell source from human, a cell line is predominant. Moreover, with the cellular metabolism being similar to human intestines, Caco-2 becomes an excellent tool in the study of intestine absorption. Therefore, in the comparison of the in vitro transmission rate between gabapentin and gabapentin derivatives, the Caco-2 system is still the favorable model.
The research for studying gabapentin and the derivatives thereof in the present invention includes: Caco-2 cell activation, Caco-2 monolayer cell cultivation, resistance value measurement, effect of time to gabapentin transmission rate, and comparison of transmission rate between gabapentin and gabapentin derivatives. In constructing the Caco-2 monolayer, the original cell line is the human colon adenocarcinoma cell (Caco-2), and its data sheet is listed as Table 2.
The Caco-2 cell is activated appropriately, and seeded in the transwell at 37° C. in an amount of about 1×10^5. The aliquot is cultivated in 5% CO2 at 37° C. and replaced with a fresh medium every 3 to 4 days, and then the monolayer cell is obtained by the 21 days cultivation. The integrity of the Caco-2 cell is further characterized by tissue section and resistance value measurement.
HPLC Analysis: Intersil ODS-3V 250*4.6 mm column, Solvent: MeOH/H2O=10:90 to 70:30 with 0.1% of NH4OAc, Flow rate=1.0 ml/min, ELSD: Evaporative Light Scattering Detector. Every derivative has been repeated for 3 times in analysis, 4 hr later, the sample is analyzed for the transmission rate and then averaged to account its transmission fold.

[3] = Caco-2 monolayer, 4 h, mean of 3 repeats, HPLC-ELSD
[4] = ratio of Caco-2 transmission rate to GBP.HCl, 4 h

SMILES | AUC value relative to Gabapentin HCl [1] [times] | Caco-2 Cell Mean Total Transmission rate 4 h (%) ([2]; human, Caco-2, 4 h) | gbp-prodrug/gbp Transmission Fold ([2]; human, Caco-2, 4 h) [Fold] | Caco-2 Cell Mean Total Transmission rate 4 h (%) [2, 3] [%] | gbp-prodrug/gbp Transmission Fold [2, 4] [Fold]
CCOC(=O)CC1(CNC(=O)CC2(CN)CCCCC2)CCCCC1 [Embodiment 2, (1-{[2-(1-Aminomethyl-cyclohexyl)-acetylamino]-methyl}-cyclohexyl)-acetic acid ethyl ester] | 14.9 | 10.25 | 9.3 | – | –
CCOC(=O)CC1(CNC(=O)C(C)N)CCCCC1 (stereo not drawn) [Embodiment 11, {1-[(2-Amino-propionylamino)-methyl]-cyclohexyl}-acetic acid ethyl ester] | – | 17.6 | 16.0 | – | –
CCOC(=O)CC1(CNC(=O)c2ccccc2CN)CCCCC1 [Embodiment 18, {1-[(2-Aminomethyl-benzoylamino)-methyl]-cyclohexyl}-acetic acid ethyl ester] | – | 2.13 | 1.9 | – | –
CCOC(=O)CC1(CNC(=O)C(NC(=O)CC2(CN)CCCCC2)c2ccccc2)CCCCC1 (stereo not drawn) [Embodiment 21, [1-({2-[2-(1-Aminomethyl-cyclohexyl)-acetylamino]-2-phenyl-acetylamino}-methyl)-cyclohexyl]-acetic acid ethyl ester] | – | – | – | 8.58 | 7.8
CCOC(=O)CC1(CNC(=O)C(NC(=O)OC(C)(C)C)c2ccc(O)cc2)CCCCC1 (stereo not drawn) [Embodiment 38, (1-{[2-tert-Butoxycarbonylamino-2-(4-hydroxy-phenyl)-acetylamino]-methyl}-cyclohexyl)-acetic acid ethyl ester] | – | – | – | 5.05 | 4.6
CCOC(=O)CC1(CNC(=O)C(N)Cc2ccccc2)CCCCC1 (stereo not drawn) [Embodiment 16, {1-[(2-Amino-3-phenyl-propionylamino)-methyl]-cyclohexyl}-acetic acid ethyl ester] | – | 10.30 | 9.4 | – | –
CCOC(=O)CC1(CNC(=O)c2ccccc2)CCCCC1 [Embodiment 8, [1-(Benzoylamino-methyl)-cyclohexyl]-acetic acid ethyl ester] | – | 21.4 | 19.5 | – | –
CCOC(=O)CC1(CNC(=O)C(N)CCc2ccccc2)CCCCC1 (stereo not drawn) [Embodiment 31, {1-[(2-Amino-4-phenyl-butyrylamino)-methyl]-cyclohexyl}-acetic acid ethyl ester] | – | 12.30 | 11.2 | – | –
CCOC(=O)CC1(CNC(=O)c2ccc(O)c(OC)c2)CCCCC1 [Embodiment 24, {1-[(4-Hydroxy-3-methoxy-benzoylamino)-methyl]-cyclohexyl}-acetic acid ethyl ester] | – | 13.59 | 12.4 | – | –
CCOC(=O)CC1(CNC(=O)C(N)CC(C)C)CCCCC1 (stereo not drawn) [Embodiment 13, {1-[(2-Amino-4-methyl-pentanoylamino)-methyl]-cyclohexyl}-acetic acid ethyl ester] | – | 12.37 | 11.2 | – | –
